Reference: patent US12263248B2, “Compounds and compositions for intracellular delivery of therapeutic agents” (ModernaTX, Inc., priority 2018, dated 2025)

Key:
[1] = One month toxicology evaluation: C5b9 and MCP-1 serum concentration in cynomolgus monkeys; type: in vivo; conditions: 1 mg/kg mRNA, day 1 and day 29, vs PBS
Excerpt: FIGS. 33A and 33B are a pair of graphs summarizing the results of a one month toxicology evaluation in rats and non-human primates.

[2] = test system: C5b9; test: Complement activation indicators in non-human primates; type: in vivo, Cynomolgus monkeys
Method: The tolerability and efficacy of nanoparticle compositions to non-human primates was also investigated using a sample formulation including Compound 18. The formulation was prepared according to the standard MC3 formulation described above and included an hEPO mRNA. Primates were administered a single dose of 0.05 (Group 1), 0.3 (Group 2), or 1.0 (Group 3) mpk via intravenous infusion for 60 minutes. Three primates were administered each dose. Expression of hEPO was measured prior to dosing and at 2, 6, 24, 48, and 96 hours post-treatment (Table 26). Table 28 includes levels of indicators of complement activation, while Table 29 includes cytokine induction data.
(§1) Serum C5b9 levels: C5b9 sample analysis was performed using an ELISA method. The kit used was Human C5b-9 ELISA Set and Reagent Set B from BD Bioscience. Study samples were analyzed in singlicate diluted 1/100.

[3] = Metabolite identification of Compound 18 in human plasma; type: in vitro ADME; design: key to Detection in incubation: +: Detected; ND: Not detected; conditions: for Detection in incubation: Compound 18 (10 μM), human plasma
Method: Metabolite Identification: Compound 18 (10 μM) was incubated with human plasma (29.0 mg protein/incubation) in incubation mixtures (200 μL final incubation volume) that consisted of 50/50v/v neat plasma (undiluted)/substrate solution in 50 mM phosphate buffer, pH 7.4). The plasma was obtained from male and female donors and contained K2EDTA anticoagulant. Reactions were started by addition of the substrate solution to human plasma and were stopped at four designated time points (0, 30, 60 and 90 min) by the addition of 600 μL of stop reagent (acetonitrile). Stopped incubation samples were centrifuged (e.g., 10,000×g for 10 min at 10° C.) and the supernatant fractions were analyzed by LC-MS/MS to characterize the metabolites formed from compound 18. Additional incubations were performed with the positive control procaine (5 μM) to establish competency of the test system. Samples were analyzed by LC-MS/MS.

[4] = One-month toxicological evaluation with weekly dosing in rat; type: in vivo, Sprague Dawley rat; conditions: weekly dosing 0.05, 0.5 and 2 mg/kg, one-month study
Method: (§2) Serum ALT and AST levels: Samples were analyzed using a Modular Analytics analyzer.
(§3) Next, tolerability and safety of the compound 18-based LNPs in vivo was tested. A full toxicological evaluation of compound 18-based LNPs in both Sprague Dawley rat and cynomolgus monkey was performed using a standard one-month study with weekly dosing at three dose levels in each species. Rats were dosed at 0.05, 0.5, and 2 mg/kg and a non-human primates was dosed at 0.1, 0.3, and 1 mg/kg. LNP-related toxicities associated with MC3-based LNP systems are generally associated with immunological (cytokine and complement activation) and hepatic injury. […] FIGS. 32 and 33 highlight the day 30 levels of alanine transferase (ALT, FIG. 32A) and aspartate aminotransferase (AST, FIG. 32B), two indicators of liver damage.

[5] = One-month toxicological evaluation with weekly dosing in cynomolgus monkey; type: in vivo
Method: as §2, §1
bDNA for measurement of mRNA levels: mRNA sample analysis (bDNA method) was performed using the QuantiGene® 2.0 Reagent System kit from Affymetrix. Study samples were lysed prior to analysis using the QuantiGene Sample Processing Kit (Blood samples). Study samples were analyzed in duplicate diluted between 1/100 and 1/1250000.
as §3

[6] = Lipid tissue accumulation in NHP after a single dose; conditions: 12 hours post dose
[7] = MC3 single cell necrosis in rat liver and liver enzymes; type: in vivo, rats; conditions: rat liver
Method: FIG. 37 is a series of graphs illustrating MC3 single cell necrosis in rat liver and liver enzyme. The top row is a pair of images of livers of rats administered with 0.3 mg/kg of a […] (LNP) not containing an mRNA (right) and PBS (phosphate buffered saline) as a control (left). The bottom row is a pair of graphs showing expression of ALT (left) and AST(right) in the liver following administration of a 0.3 mg/kg of a MC3-based LNP containing an mRNA.

[8] = rat, MC3-based mRNA containing LNP, 0.3 mg/kg dose mRNA; cited from earlier work
[9] = 0.3 mg/kg of MC3-based LNP containing an mRNA

For `CCCCCCCCCOC(=O)CCCCCCCN(CCO)CCCCCCCC(=O)OC(CCCCCCCC)CCCCCCCC` [Compound 18, Heptadecan-9-yl 8-((2-hydroxyethyl)(8-(nonyloxy)-8-oxooctyl)amino)octanoate], the C5b9 serum concentration ([1]; all timepoints) was “No statistical difference”, the MCP-1 serum concentration ([1]; any timepoint other than the one marked *p<0.05) was “no statistical difference” and the C3a ([2]; 0.05 mpk, 2 h) was 19236 ng/mL. The C5b9 ([2]; 0.05 mpk, 24 h) was 265 ng/mL, the C5b9 ([2]; 0.05 mpk, Day 5) was 163 ng/mL and the C3a ([2]; 0.05 mpk, Predose) was 10600 ng/mL. It also gave a C3a ([2]; 0.3 mpk, 2 h) of 42897 ng/mL, a C5b9 ([2]; 0.3 mpk, 24 h) of 614 ng/mL and a C5b9 ([2]; 0.3 mpk, Day 5) of 405 ng/mL. It also gave a C3a ([2]; 0.3 mpk, Predose) of 9827 ng/mL, a C3a ([2]; 1.0 mpk, 2 h) of 75936 ng/mL and a C5b9 ([2]; 1.0 mpk, 24 h) of 4798 ng/mL. The C5b9 ([2]; 1.0 mpk, Day 5) was 534 ng/mL, the C3a ([2]; 1.0 mpk, Predose) was 12792 ng/mL and the Detection in incubation ([3]; 0 min) was “+”. The Detection in incubation ([3]; 30 min) was “+”, the Detection in incubation ([3]; 60 min) was “+” and the Detection in incubation ([3]; 90 min) was “+”. For the same compound, the “initial step of metabolism” value ([3]; in vitro metabolite identification studies) was “primary ester hydrolysis to compound 166”, the adverse findings [4] was “no adverse findings” and the “ALT and AST levels” value ([5]; 1 mg/kg dose, day 30) was “at the same level as the control”. For the same compound, the C5b9 levels ([5]; after dose 1 or dose 5) was “no significant change” and the “lipid levels in tissues” value [6] was “significantly lower levels”.
For `CCCCC/C=C\C/C=C\CCCCCCCCC(CCCCCCCC/C=C\C/C=C\CCCCC)OC(=O)CCCN(C)C` [MC3, DLin-MC3-DMA, reference compound], the pathology ([7]; 0.3 mg/kg MC3-based LNP) was “evidence of necrosis”, the ALT [7, 9] was “elevated” and the AST [7, 9] was “elevated”. For the same compound, the “ALT, AST and pathology” value [8] was “ALT and AST were elevated and pathology showed evidence of necrosis”.
